From patent US9955689B2, “Method for promoting plant growth” (SUMITOMO CHEMICAL COMPANY, LIMITED, priority 2012, dated 2018)

system: Nicotiana benthamiana; assay: Test Example 5: growth promotion under low-temperature stress by hydroponics of Nicotiana benthamiana (1 ppm); format: in vivo; settings: compound at 1 ppm, 7 days at 1.5±1.0° C. low-temperature stress, then 3 days at 22° C., 5 or greater = growth promotion effect, read-out: value of a relative leaf area (Equation (1), area of green leaf)
Method: Test Example 5. Test for Evaluating Growth Promotion Under Low-Temperature Stress by Hydroponics of Nicotiana benthamiana
(Cultivation and Compound Treatment)
A DMSO solution, which contained one of the compounds 9, 10, 15, 16, 27 to 29, 31 to 37, 40, 44, 47, 48, 52, 55, 56, 58, 61, 63, 81, 87, 89, 92, 95, 98, 100, 102, 105, 108, 109, 111, 113, and 115 of the present invention at a concentration of 1,000 ppm, was prepared. The DMSO solution of the compound of the present invention was added at a volume ratio of 1/1,000 to the Murashige-Scoog medium of a ½-fold concentration (a medium containing 2.3 g of mixed salts (manufactured by Wako Pure Chemical Industries, Ltd.), 200 mg of Myo-inositol (manufactured by Sigme-Aldrich Co. LLC.), 2 mg of niconitic acid (manufactured by Wako Pure Chemical. Industries, Ltd.), 2 mg of pyridoxine hydrochloride (manufactured by Wako Pure Chemical Industries, Ltd.), 20 mg of thiamine hydrochloride (manufactured by Wako Pure Chemical Industries, Ltd.), 20 g of sucrose (manufactured by Wako Pure Chemical Industries, Ltd.), and 1 g of MES (manufactured by DOJINDO LABORATORIES) respectively per 1 L of water and having pH adjusted to 5.8), thereby preparing a medium containing the compound of the present invention at a concentration of 1 ppm.
Seeds of Nicotiana benthamiana were seeded in the 5 μL of the medium and cultured overnight at 22° C. Thereafter, 45 μL of the medium containing the compound of the present invention at a concentration of 1 ppm was added thereto, and the seeds are cultured for 7 days at 22° C. under the conditions of an illuminance of 4,000 lux, and a day length of 16 hours, and the seedlings raised from the Nicotiana benthamiana were treated with the compound. Moreover, instead of the above medium a test plot, which was obtained by performing the same treatment by using a medium prepared by adding DMSO to the Murashige⋅Scoog medium of ½-fold concentration at a volume ratio of 1/1,000, was used as a control plot not treated with the compound.
(Low-Temperature Stress Treatment)
The seedlings of the Nicotiana benthamiana treated with the compound were subjected to low-temperature treatment by being cultured for 7 days at 1.5±1.0° C., under the conditions of an illuminance of 2,000 lux, and a day length of 16 hours.
The seedlings of the Nicotiana benthamiana having undergone the low-temperature stress treatment were cultured for 3 days at 22° C. under the conditions of an illuminance of 4,000 lux, and a day length of 16 hours. Thereafter, the area of green leaf was quantified by Scanalyzer HTS (manufactured by LemnaTec GmbH). Moreover, the value of the control plot not treated with the compound that had not yet been subjected to the low-temperature stress treatment was measured in the same manner. A value of a relative leaf area was calculated based on the following equation (1), and if the relative value of leaf area was 5 or greater, the compound was evaluated to have a growth promotion effect. As a result of the evaluation, it was confirmed that when the plant was treated with one of the compounds 9, 10, 15, 16, 27 to 29, 31 to 37, 40, 44, 47, 48, 52, 55, 56, 58, 61, 63, 81, 87, 89, 92, 95, 98, 100, 102, 105, 108, 109, 111, 113, and 115 of the present invention at 1 ppm, the value of a relative leaf area was 5 or greater, compared to the area of green leaf of the control plot not treated with compound. Accordingly, it was confirmed that the treatment using the compound of the present invention improve a growth promotion effect. Relative leaf area=100*(a green area of a plot treated with the compound of the present invention minus(−) a green area of a plot not treated with the compound of the present invention)/(a green area of a control plot not treated with the compound of the present invention that had not yet been subjected to low-temperature stress treatment minus(−) a green area of a control plot not treated with the compound of the present invention) Equation (1): […]

Row | Structure (SMILES) | relative leaf area at 1 ppm
1 | O=C(O)c1cc2cc(C(=O)C(F)(F)F)ccc2s1 [Present compound 58, 5-(trifluoroacetyl)benzo[b]thiophene-2-carboxylic acid] | ≥ 5%
2 | O=C(O)c1cc2c(Cl)c(Cl)ccc2s1 [Present compound 102, 4,5-dichlorobenzo[b]thiophene-2-carboxylic acid] | ≥ 5%
3 | O=C(O)c1sc2ccc(C(F)(F)F)cc2c1Cl [Present compound 105, 3-chloro-5-trifluoromethylbenzo[b]thiophene-2-carboxylic acid] | ≥ 5%
4 | Nc1c(C(=O)O)sc2ccccc12 [Present compound 63, 3-amino-benzo[b]thiophene-2-carboxylic acid] | ≥ 5%
5 | N#Cc1ccc2sc(C(=O)O)cc2c1 [Present compound 16, 5-cyanobenzo[b]thiophene-2-carboxylic acid] | ≥ 5%
6 | Cc1cccc(-c2cccc3cc(C(=O)O)sc23)c1 [Present compound 40, 7-(3-methylphenyl)benzo[b]thiophene-2-carboxylic acid] | ≥ 5%
7 | Nc1ccc2sc(C(=O)O)cc2c1 [Present compound 61, 5-aminobenzo[b]thiophene-2-carboxylic acid] | ≥ 5%
8 | O=C(O)c1sc2ccc(C(F)(F)F)cc2c1OCc1ccccc1 [Present compound 115, 3-benzyloxy-5-trifluoromethylbenzo[b]thiophene-2-carboxylic acid] | ≥ 5%
9 | O=C(O)c1cc2cc(-c3ccccn3)ccc2s1 [Present compound 44, 5-(2-pyridyl)benzo[b]thiophene-2-carboxylic acid] | ≥ 5%
10 | O=C(O)c1cc2cc(S(=O)(=O)C(F)(F)F)ccc2s1 [Present compound 100, 5-(trifluoromethylsulfonyl)benzo[b]thiophene-2-carboxylic acid] | ≥ 5%
11 | CC(C)Oc1c(C(=O)O)sc2ccccc12 [Present compound 87, 3-isopropoxybenzo[b]thiophene-2-carboxylic acid] | ≥ 5%
12 | O=C(O)c1cc2cc(SC(F)(F)F)ccc2s1 [Present compound 98, 5-(trifluoromethylthio)benzo[b]thiophene-2-carboxylic acid] | ≥ 5%
13 | CC(=O)c1ccc2sc(C(=O)O)cc2c1 [Present compound 56, 5-acetylbenzo[b]thiophene-2-carboxylic acid] | ≥ 5%
14 | O=C(O)c1cc2c(C(=O)O)cccc2s1 [Present compound 52, benzo[b]thiophene-2,4-dicarboxylic acid] | ≥ 5%
15 | O=C(O)c1cc2cc(I)ccc2s1 [Present compound 15, 5-iodobenzo[b]thiophene-2-carboxylic acid] | ≥ 5%
16 | CCOc1c(C(=O)O)sc2ccc(C(F)(F)F)cc12 [Present compound 113, 3-ethoxy-5-trifluoromethylbenzo[b]thiophene-2-carboxylic acid] | ≥ 5%
17 | CNc1c(C(=O)O)sc2ccc(C(F)(F)F)cc12 [Present compound 109, 3-(N-methylamino)-5-trifluoromethylbenzo[b]thiophene-2-carboxylic acid] | ≥ 5%
18 | O=C(O)c1cc2ccc(-c3ccc(C(F)(F)F)nc3)cc2s1 [Present compound 47, 6-(6-trifluoromethyl-3-pyridyl) benzo[b]thiophene-2-caboxylic acid] | ≥ 5%
19 | O=C(O)c1cc2cccc(Oc3ccc(C(F)(F)F)cc3)c2s1 [Present compound 95, 7-(4-trifluoromethylphenoxy)benzo[b]thiophene-2-carboxylic acid] | ≥ 5%
20 | O=C(O)c1sc2ccc(C(F)(F)F)cc2c1O [Present compound 111, 3-hydroxy-5-trifluoromethylbenzo[b]thiophene-2-carboxylic acid] | ≥ 5%
21 | O=C(O)c1cc2cc(-c3ncccn3)ccc2s1 [Present compound 48, 5-(2-pyrimidinyl)benzo[b]thiophene-2-carboxylic acid] | ≥ 5%
22 | COc1cccc2sc(C(=O)O)cc12 [Present compound 81, 4-methoxybenzo[b]thiophene-2-carboxylic acid] | ≥ 5%
23 | COc1cccc(COc2ccc3cc(C(=O)O)sc3c2)c1 [Present compound 92, 6-(3-methoxybenzyloxy)benzo[b]thiophene-2-carboxylic acid] | ≥ 5%
24 | O=C(O)c1cc2c(Br)cccc2s1 [Present compound 10, 4-bromobenzo[b]thiophene-2-carboxylic acid] | ≥ 5%
25 | O=C(O)c1cc2cc(OC(F)(F)F)ccc2s1 [Present compound 89, 5-trifluoromethoxybenzo[b]thiophene-2-carboxylic acid] | ≥ 5%
26 | Nc1c(C(=O)O)sc2ccc(C(F)(F)F)cc12 [Present compound 108, 3-amino-5-trifluoromethylbenzo[b]thiophene-2-carboxylic acid] | ≥ 5%
